System: tumor cells from right chest wall lesion (mammary carcinoma cells)
Experiment: Ex vivo drug response testing of fresh tumor specimen (DISC, MTT and redox assays)
Format: cell-based, human
Design: key to ASSAY RESULT: Sensitive: the drug inhibits the cell growth or proliferation of the cell to a greater degree than is expected for an appropriate control; Resistant: the drug inhibits the cell growth or proliferation of the cell to a lesser degree than is expected for an appropriate control
Conditions: for ASSAY RESULT: fresh tumor cells, compared with a database of assays of similar technical characteristics; for activity in vitro (in words): summary of the table
Description: An unfixed portion of the tumor was further analyzed for response to several drugs. A specimen consisted of 1 piece of yellow, white, and red tissue, obtained from the right chest wall lesion. The piece was soft and sticky in texture, measured 0.8×1.4 cm, and weighed 0.47 gm. The specimen was minced to individual pieces smaller than one mm with surgical scissors and digested for 1.3 hours with collagenase-DNAse. Viable tumor cells were enriched by Ficoll-diatriozate centrifugation. Cytospin slides were prepared, air-dried, and stained with Fast Green/Hamatoxyline-eosin. On this cytology preparation obtained from mechanically-dissociated, enzyme-digested tissue, there was a collection of somewhat pleomorphic tumor cells, consistent with mammary carcinoma cells. Tumor cells were present as loose cell clusters (60% of total tumor cells) and, less commonly, as discohesive single cells (40% of total tumor cells). The tumor cells measured 22-25 microns in diameter and had N/N+C ratios of 0.6-0.8. […] Nucleoli were variably prominent. There were no cells with large clear globular areas or secretory material within the cytoplasm. There was slight cytoplasmic and nuclear molding. Approximately 40% of the enriched tumor cell fraction consisted of normal-appearing connective tissue cells and inflammatory cells.
Cells were plated for testing in 3 different assay endpoints. In the DISC assay, the entire contents of the cell culture were cytocentrifuged onto permanent microscope slides and differentially stained to allow discrimination of normal and neoplastic cells and living and dead cells. […] The MTT assay measures mitochondrial metabolism in the entire cell culture. The redox assay measures total metabolic activity in the entire cell culture, using the Alamar Blue reagent to index the oxygen reduction potential of the culture medium. Because of the very low yield of viable tumor cells, only a small drug panel could be tested. Additionally, some drugs could be tested only in a single assay system.
At the conclusion of the culture period, there was 10% spontaneous attrition in viable tumor cell numbers. Formazan signal in the MTT assay was moderate, reflective of moderate cell metabolism, and allowing for an MTT assay of good quality. Percentage of tumor cells as a percentage of total viable cells at the conclusion of the culture was approximately 85. DISC and MTT assays were in reasonably good agreement. The overall technical quality of the assays was good, marred only by the low yield of tumor cells, which severely limited the scope of testing.
Results were compared with a database of assays which had similar technical characteristics, as the technical characteristics of these assays influence the in vitro results, along with the intrinsic drug resistance of the tumor cells. By controlling for technical characteristics such as spontaneous cell loss, metabolic signal at the conclusion of the culture, and tumor cell clustering, biological correlations are improved.

## O=c1[nH]cc(F)c(=O)[nH]1 [Fluorouracil]
  ASSAY RESULT: Intermediate

## O=C1c2c(O)ccc(O)c2C(=O)c2c(NCCNCCO)ccc(NCCNCCO)c21 [Mitoxantrone]
  ASSAY RESULT: Intermediate

## Gemcitabine + Cisplatin
  ASSAY RESULT: Intermediate

## COc1cc([C@@H]2c3cc4c(cc3[C@@H](O[C@@H]3O[C@@H]5CO[C@@H](C)O[C@H]5[C@H](O)[C@H]3O)[C@H]3COC(=O)[C@H]23)OCO4)cc(OC)c1O [Etoposide]
  ASSAY RESULT: Sensitive
  activity in vitro (in words): above-average activity

## O=P1(N(CCCl)CCCl)NC(OO)CCO1 (centres unmarked) [Cyclophosphamide (4HC)]
  ASSAY RESULT: Sensitive
  activity in vitro (in words): above-average activity

## CC(=O)O[C@H]1C(=O)[C@@]2(C)[C@H]([C@H](OC(=O)c3ccccc3)[C@]3(O)C[C@H](OC(=O)[C@H](O)[C@@H](NC(=O)c4ccccc4)c4ccccc4)C(C)=C1C3(C)C)[C@]1(OC(C)=O)CO[C@@H]1C[C@@H]2O [Taxol (Paclitaxel), Paclitaxel]
  ASSAY RESULT: Sensitive
  activity in vitro (in words): best drug in vitro
Listed as paclitaxel (Taxol)
  activity in vitro (in words): above-average activity

## CCC1=C[C@@H]2CN(C1)Cc1c([nH]c3ccccc13)[C@@](C(=O)OC)(c1cc3c(cc1OC)N(C)[C@H]1[C@@](O)(C(=O)OC)[C@H](OC(C)=O)[C@]4(CC)C=CCN5CC[C@]31[C@@H]54)C2 [Vinorelbine (Navelbine), Vinorelbine]
  ASSAY RESULT: Intermediate

## COc1cccc2c1C(=O)c1c(O)c3c(c(O)c1C2=O)C[C@@](O)(C(=O)CO)C[C@@H]3O[C@H]1C[C@H](N)[C@H](O)[C@H](C)O1 [Doxorubicin]
  ASSAY RESULT: Intermediate

## N.N.O=C([O-])C1(C(=O)[O-])CCC1.[Pt+2] [Carboplatin]
  ASSAY RESULT: Resistant
  activity in vitro (in words): poor activity
